Active and inactive are the calls of the source. No cut-off for these calls is given here.
Key:
BT-549 = experiment: Cytotoxicity against human BT549 cells assessed as growth inhibition at 10 uM; assay type: functional; conditions: read-out: GI
NCI-H322M = experiment: Cytotoxicity against human NCI-H322M cells assessed as growth inhibition at 10 uM; assay type: functional; conditions: read-out: GI
NCI-H226 = experiment: Cytotoxicity against human NCI-H226 cells assessed as growth inhibition at 10 uM; assay type: functional; conditions: read-out: GI
TK-10 = experiment: Cytotoxicity against human TK10 cells assessed as growth inhibition at 10 uM; assay type: functional; conditions: read-out: GI
PC-3 = experiment: Cytotoxicity against human PC3 cells assessed as growth inhibition at 10 uM; assay type: functional; conditions: read-out: GI
MDA-MB-231 [1] = experiment: Antiproliferative activity against human MDA-MB-231 cells after 72 hrs by MTT assay; assay type: functional, cell-based; conditions: MDA-MB-231, 72 h
MDA-MB-231 [2] = experiment: Antiinvasive activity against human MDA-MB-231 cells assessed as inhibition of cell invasion at 15 uM after 24 hrs by BME Cell invasion assay kit; assay type: functional
IGROV-1 = experiment: Cytotoxicity against human IGROV1 cells assessed as growth inhibition at 10 uM; assay type: functional; conditions: read-out: GI
HL-60(TB) = experiment: Cytotoxicity against human HL-60(TB) cells assessed as growth inhibition at 10 uM; assay type: functional; conditions: read-out: GI
RXF 393 = experiment: Cytotoxicity against human RXF393 cells assessed as growth inhibition at 10 uM; assay type: functional; conditions: read-out: GI
NCI-H460 = experiment: Cytotoxicity against human NCI-H460 cells assessed as growth inhibition at 10 uM; assay type: functional; conditions: read-out: GI
Caenorhabditis elegans [3] = experiment: Toxicity in L1 stage Caenorhabditis elegans N2 assessed as viability and reproduction at 10 uM; assay type: organism-based; conditions: in vivo
CCRF-CEM = experiment: Cytotoxicity against human CCRF-CEM cells assessed as growth inhibition at 10 uM; assay type: functional; conditions: read-out: GI
LOX IMVI = experiment: Cytotoxicity against human LOXIMVI cells assessed as growth inhibition at 10 uM; assay type: functional; conditions: read-out: GI
MDA-MB-468 = experiment: Cytotoxicity against human MDA-MB-468 cells assessed as growth inhibition at 10 uM; assay type: functional; conditions: read-out: GI
[4] = Cytotoxicity against human HCT15 cells assessed as growth inhibition at 10 uM; assay type: functional; conditions: HCT-15, read-out: GI
SK-MEL-5 = experiment: Cytotoxicity against human SK-MEL-5 cells assessed as growth inhibition at 10 uM; assay type: functional; conditions: read-out: GI
MCF7 = experiment: Antiproliferative activity against human MCF7 cells after 72 hrs by MTT assay; assay type: functional, cell-based; conditions: MCF7, 72 h
MOLT-4 = experiment: Cytotoxicity against human MOLT4 cells assessed as growth inhibition at 10 uM; assay type: functional; conditions: read-out: GI
ACHN = experiment: Cytotoxicity against human ACHN cells assessed as growth inhibition at 10 uM; assay type: functional; conditions: read-out: GI
U-251 = experiment: Cytotoxicity against human U251 cells assessed as growth inhibition at 10 uM; assay type: functional; conditions: read-out: GI
Malme-3M = experiment: Cytotoxicity against human MALME-3M cells assessed as growth inhibition at 10 uM; assay type: functional; conditions: read-out: GI
SNB-75 = experiment: Cytotoxicity against human SNB75 cells assessed as growth inhibition at 10 uM; assay type: functional; conditions: read-out: GI
786-0 = experiment: Cytotoxicity against human 786-0 cells assessed as growth inhibition at 10 uM; assay type: functional; conditions: read-out: GI
CAKI-1 = experiment: Cytotoxicity against human CAKI-1 cells assessed as growth inhibition at 10 uM; assay type: functional; conditions: read-out: GI
SW-620 = experiment: Cytotoxicity against human SW620 cells assessed as growth inhibition at 10 uM; assay type: functional; conditions: read-out: GI
SF-539 = experiment: Cytotoxicity against human SF539 cells assessed as growth inhibition at 10 uM; assay type: functional; conditions: read-out: GI
Caenorhabditis elegans [5] = experiment: Toxicity in L1 stage Caenorhabditis elegans N2 assessed as viability and reproduction at 50 uM; assay type: organism-based; conditions: in vivo
HT-29 = experiment: Cytotoxicity against human HT-29 cells assessed as growth inhibition at 10 uM; assay type: functional; conditions: read-out: GI
SN12C = experiment: Cytotoxicity against human SN12C cells assessed as growth inhibition at 10 uM; assay type: functional; conditions: read-out: GI
[6] = Cytotoxicity against human NCI-ADR-RES cells assessed as growth inhibition at 10 uM; assay type: functional; conditions: read-out: GI
NCI-H23 = experiment: Cytotoxicity against human NCI-H23 cells assessed as growth inhibition at 10 uM; assay type: functional; conditions: read-out: GI

For `C=C(C)[C@H]1O[C@H]2CC[C@@]3(C)[C@@](O)(CC[C@H]4[C@@H]5OC(C)(C)[C@H]6C[C@@H]7C(=C)Cc8ccc9[nH]c(c5c9c8[C@@]76O)[C@@]43C)[C@]23O[C@@H]3[C@H]1O`, the inhibition of growth at 10 µM (BT-549) was 101%, the inhibition of growth at 10 µM (NCI-H322M) was 99.4% and the inhibition of growth at 10 µM (NCI-H226) was 98.2%. It also gave an inhibition of growth at 10 µM (TK-10) of 107%, an inhibition of growth at 10 µM (PC-3) of 82.9% and an IC50 (MDA-MB-231 [1]) of 25.4 µM. The inhibition (MDA-MB-231 [2]) was “inactive”, the inhibition of growth at 10 µM (IGROV-1) was 89.7% and the inhibition of growth at 10 µM (HL-60(TB)) was 101%. The inhibition of growth at 10 µM (RXF 393) was 95%, the inhibition of growth at 10 µM (NCI-H460) was 100% and the Activity (Caenorhabditis elegans [3]) was “Non-toxic”. The inhibition of growth at 10 µM (CCRF-CEM) was 68%, the inhibition of growth at 10 µM (LOX IMVI) was 105% and the inhibition of growth at 10 µM (MDA-MB-468) was 96.6%. It also gave an inhibition of growth at 10 µM [4] of 98.9%, an inhibition of growth at 10 µM (SK-MEL-5) of 104% and an IC50 (MCF7) of 17.5 µM. For the same molecule, the inhibition of growth at 10 µM (MOLT-4) was 78%, the inhibition of growth at 10 µM (ACHN) was 101% and the inhibition of growth at 10 µM (U-251) was 99%. For the same molecule, the inhibition of growth at 10 µM (Malme-3M) was 98.5%, the inhibition of growth at 10 µM (SNB-75) was 84.4% and the inhibition of growth at 10 µM (786-0) was 96.2%. The inhibition of growth at 10 µM (CAKI-1) was 107%, the inhibition of growth at 10 µM (SW-620) was 106% and the inhibition of growth at 10 µM (SF-539) was 90.7%. For the same molecule, the Activity (Caenorhabditis elegans [5]) was “Non-toxic”, the inhibition of growth at 10 µM (HT-29) was 90.6% and the inhibition of growth at 10 µM (SN12C) was 99.2%. The inhibition of growth at 10 µM [6] was 109% and the inhibition of growth at 10 µM (NCI-H23) was 117%.

Source: ChEMBL document CHEMBL3217526, “Bioguided discovery and pharmacophore modeling of the mycotoxic indole diterpene alkaloids penitrems as breast cancer proliferation, migration, and invasion inhibitors” (Medchemcomm, 2013)
